# Test results: US20070270403A1 (priority 2003, published 2007)
# Like-named read-outs stand apart in the source and are kept apart here.
# Assays:
# [1] = test system: Sprague-Dawley laboratory rats; assay: Stereotypy (fine movements of sniffing and grooming) by infrared photobeams (risperidone studies); assay type: in vivo, Sprague-Dawley Rattus Norvegicus
# Protocol: (§1) Behaviors were monitored with infrared photobeams which surrounded the faradaic chamber. Open-field behaviors of locomotion (ambulations) and stereotypy (fine movements of sniffing and grooming) were recorded in sec and repeated every five min for a period of 2 hrs before each treatment and a period of 2 hrs after each treatment. Open-field behaviors were monitored simultaneously with in vivo microvoltammetric recordings of monoamines.
# (§2) The first hr pre-drug, allowed exploratory behavior. Exploratory behavior is defined as open-field behavior of ambulations (forward locomotion) and stereotypy (fine movements of sniffing and grooming), wherein animals respond to the stimuli of a novel environment with a high frequency of behavioral counts. The second hr pre-drug allowed the animal to become habituated before treatment. […] In the acute studies, each drug was administered […]. For the subacute studies, twenty four hrs later, the animals were again placed in the faradaic behavioral chamber and no further drug was administered. Each animal was monitored for possible recovery, withdrawal or after-effects. of each treatment WHILE open-field behaviors of locomotions and stereotypy were monitored with computerized infrared photocell beams which surround the faradaic chamber.
# (§3) The faradaic chamber was made of plexiglas and covered with copper wire to refract possible electrical artifacts (dimensions: 24 inch (width) by 18 inch (depth) by 23.5 inch (height)). A 16 by 16 array of infrared photobeams, held in place by an aluminum frame, was situated ¾ inch above the Plexiglas floor of the chamber to detect locomotor and stereotypic movements. Photobeams were sampled by a Pentium computer to define the x-y position of the animal within a 1.5 inch resolution every 100 msec. When an x-y position was calculated, it was used to define a particular behavioral parameter. This system is a modified version of an Activity Pattern Monitor (APM) (San Diego Instruments, San Diego, Calif.). Behavioral data is presented in terms of Frequency of Events.
# (§4) Neurochemical and behavioral data, derived from the last thirty minutes of the habituation period, provided the baseline data. […] Where appropriate, data points in the time course were subjected to 95% Confidence Limits (C.L.).
# [2] = test system: Sprague-Dawley laboratory rats; assay: Locomotion (ambulations) by infrared photobeams (risperidone studies); assay type: in vivo, Sprague-Dawley Rattus Norvegicus; conditions: Subacute
# Protocol: as §1, §2, §3, §4
# [3] = cited from earlier work
# [4] = test system: Sprague-Dawley laboratory rats; assay: Locomotor activity (ambulations) by infrared photobeams (clozapine studies); assay type: in vivo, Sprague-Dawley Rattus Norvegicus; conditions: Subacute, cocaine 10 mg/kg i.p. on Day 1
# Text: Locomotor activity (ambulation) was monitored with infrared photobeams at the same time as DA and 5-HT release in NAcc was detected with BRODERICK PROBES® in conjunction with In Vivo Microvoltammetry. The chamber was faradaic, covered with copper to refract possible electrical artifacts (dimensions: 24 in (width) by 18 in (depth) by 23.5 in (height)). A 16 by 16 array of these infrared photobeams, were held in place by an aluminum frame which was situated ¾ in above the Plexiglas floor of the chamber to detect locomotor activity. Photobeams were sampled by a Pentium computer to define the x-y position of the animal within a 1.5 in resolution every 100 msec. When an x-y position was calculated, it was used to define the frequency of locomotor activity in counts. The locomotor activity system is a modified version of an Activity Pattern Monitor (APM) (San Diego Instruments, San Diego, Calif.). Behavioral data is presented in absolute frequency, i.e., number of counts recorded.
# The first hr pre-drug allowed exploratory behavior. Exploratory behavior is defined as open-field behavior of ambulations (forward locomotion) wherein animals respond to the stimuli of a novel environment with high frequency of behavioral counts. The second hr pre-drug allowed the animal to become habituated before treatment.
# In the Acute studies, each drug was administered at the end of the habituation period. Baseline (control) values were taken every five min for the last thirty min of the habituation period at which time drug injection(s) took place. Electrochemical recordings for DA and 5-HT release in NAcc, were continued for two hrs; at the same time, locomotor behavior continued to be monitored and recorded with infrared photobeams. At the end of the 2 hr drug(s) study, animals were then placed back in their home cages.
# In the Subacute studies, which took place twenty-four hrs later, the animals were again placed in the faradaic behavioral chamber and no further drug was administered. Recordings of separate electrochemical signals for DA and 5-HT release in NAcc, were taken for one hr; at the same time, locomotor behavior was monitored and recorded with infrared photobeams.
# as §4
smiles,measurement,setting,value
"COC(=O)[C@H]1[C@@H](OC(=O)c2ccccc2)C[C@@H]2CC[C@H]1N2C [Cocaine, cocaine]","Stereotypy frequency, Day 2 (Subacute)",[1]; 24 hr after cocaine 10 mg/kg i.p. or risperidone 2 mg/kg s.c. + cocaine,40 counts
same,"Decrease in stereotypy frequency on Day 2 compared with drug treatment, Day1","[1]; Subacute, cocaine 10 mg/kg i.p.",about 20 counts
same,"Stereotypy frequency with drug treatment, Day1",[1]; cocaine 10 mg/kg i.p. or risperidone 2 mg/kg s.c. + cocaine,60 counts
same,"Decrease in locomotor activity frequency on Day 2 compared with drug treatment, Day1",[2],about 200 counts
same,half-life,[3]; i.v. cocaine,0.5 h
same,half-life,[3]; s.c. cocaine,4 h
same,Decrease in locomotor activity on Day 2 compared with Day 1 effects of cocaine,[4],250 counts
